Test results: ChEMBL document CHEMBL3580641, “Bioactive Maleic Anhydrides and Related Diacids from the Aquatic Hyphomycete Tricladium castaneicola” (J Nat Prod, 2015)
The source made the active and inactive calls. The calls are words filed in the database; no cut-off is given here.

What was measured:
Phytophthora capsici = assay: Antifungal activity against Phytophthora capsici NBRC 30696 after 22 to 24 hrs by paper disk diffusion method; type: functional, organism-based
B16 = assay: Cytotoxicity against mouse B16 cells assessed as cell viability after 48 hrs by MTT assay; type: functional, cell-based; conditions: B16, 48 h

SMILES	Activity (Phytophthora capsici)	IC50 (B16)
C[C@@H]1[C@H](O)[C@@H](C)/C=C/C=C/C=C/C=C/C=C/C=C/C=C/[C@H](O[C@@H]2O[C@H](C)[C@@H](O)[C@H](N)[C@@H]2O)C[C@@H]2O[C@](O)(C[C@@H](O)C[C@@H](O)[C@H](O)CC[C@@H](O)C[C@@H](O)CC(=O)O[C@H]1C)C[C@H](O)[C@H]2C(=O)O	Active	
CC(=O)O[C@H]1C(=O)[C@@]2(C)[C@H]([C@H](OC(=O)c3ccccc3)[C@]3(O)C[C@H](OC(=O)[C@H](O)[C@@H](NC(=O)c4ccccc4)c4ccccc4)C(C)=C1C3(C)C)[C@]1(OC(C)=O)CO[C@@H]1C[C@@H]2O [PACLITAXEL]		56 µM
CCCCCC/C=C/C(C(=O)OC)=C(\C)C(=O)OC	Active	30 µM
C=C(C(=O)O)/C(=C\CCCCCCCO)C(=O)O	Active	
CC1=C(/C=C/CCCCC(C)O)C(=O)OC1=O (stereo unspecified)	inactive	
CCCCCC/C=C/C1=C(C)C(=O)OC1=O	Active	80 µM
CC1=C(/C=C/CCC/C=C/CO)C(=O)OC1=O	inactive	
CC1=C(/C=C/CCC/C=C/C(=O)O)C(=O)OC1=O	Active	
C=C(C(=O)O)/C(=C\CCCC[C@@H](O)CC)C(=O)O	Active	
